This note sets out measurements from patent US7319094B2, “Increased and sustained in vivo gene expression using a nucleic acid, histone and amphipathic compound composition” (Rhode Island Hospital, priority 2001, dated 2008).

Entries after “also recorded” stand apart in the source; their conditions may differ.

Format in all cases: cell-based, human
The test system of one data set is p53. Kind of data set: p53 expression, Western blot / MICE assay. Conditions: PNET2 cells induced to express AD7c-NTP, growth factor stimulated. An excerpt:
(§1) Standard Western blot assays wew used to measure cellular levels of p53, Bcl-2, p21/Waf1, phospho-tau, tau, c-fos, NTP, and activated (phosphorylated) forms of Erk mitogen activated protein (MAP) kinase, amino-terminal c-jun-activated kinase (pJNK), and p38/HOG1. Immunoprecipitation followed by Western blot analysis was used to measure p85 subunit associated with IRS1. For Western blot analysis of p53 Bcl-2, phospho-tau, tau, c-fos, and NTP, the cells were lysed in ice cold radioimmunoprecipitation assay (RIPA) buffer supplemented with protease and phosphatase inhibitors. For the immunoprecipitation studies, Western blot analysis of phospho-Erk, pJNK, and p38, and the PI3 kinase assays, the cells were harvested in Triton lysis buffer supplemented with protease and phosphatase inhibitors. Protein concentrations were measured using the BCA assay (Pierce, Rockford, Ill.). Samples containing 60 μg of protein were fractionated by sodium dodecyl sulfate polyacrylamide gel electrophoresis (SDS-PAGE), then transferred to PVDF membranes, and analyzed by Western immunoblotting. Immunoreactivity was detected with horseradish peroxidase conjugated secondary IgG and PicoWest enhanced chemiluminescence reagents (Pierce Chemical Company, Rockford, Ill.). CAT activity was measured using known methods.
The MICE assay is known in the art (e.g., as described by de la Monte et al., 1999, Biotechniques 26:107301076). The assay is a rapid and sensitive method for quantifying immunoreactivity in 96-well micro-cultures and combines the advantages of the enzyme-linked immunosorbant assay with immunocytochemical staining to permit sensitive in situ quantification of protein expression with values normalized to cell density. […] Immunoreactivity was detected using horseradish peroxidase conjugated secondary antibody (Pierce, Rockford, Ill.) and the TMB soluble peroxidase substrate (Pierce, Rockford, Ill.). Absorbances were measured at 450 nm using a Spectracount plate reader. […]
Background: A western blot detects proteins with antibodies after separation by electrophoresis.

The subject of the next data set is phospho-Erk MAPK. Kind of data set: Growth factor stimulated phospho-Erk MAPK, Western blot.
Description: as §1
The potential mechanisms by which the differential effects of insulin, IGF1 and PDGF might occur were explored by examining pathways, which mediate PNET2 neuronal apoptosis and neuritic sprouting. […] Western blot analysis was performed with cell lysates obtained from cultures stimulated with insulin, IGF1, or PDGF for 0-30 minutes or 24 hours with equivalent protein loading (60 μg/sample). The membranes were probed using antibodies to Erk, phospho-Erk, Jun, and phospho-JNK. […] In contrast, after 24 hours of AD7c-NTP gene induction and growth factor stimulation, high levels of phospho-Erk MAPK were detected in the IGF-1 and PDGF-stimulated cultures, but not in the serum-starved or insulin-stimulated cultures. […] In contrast, the levels of c-fos transcription factor were equally expressed after 24 hours IPTG induction of AD7c-NTP expression and either serum starvation or stimulation with insulin, IGF1 or PDGF.

The subject of data set [1] is IRS-1-associated PI3 kinase. Nature of the data set: IRS-1-associated PI3 kinase activity. Conditions: 3 mM IPTG-induced cultures, 30 minutes of stimulation. Here is the method: The cells were harvested in Triton lysis buffer supplemented with protease and phosphatase inhibitors. Total PI3K was immunoprecipitated from 500 μg protein in cell lysates using rabbit polyclonal antibodies to the p85 subunit of PI3K and Protein A sepharose. The immunoprecipitants were incubated for 5 minutes at room temperature with 10 μg of sonicated phosphatidylinositol in HEPES buffer (200 mM HEPES, 4 mM EGTA, 4 mM sodium phosphate, pH 7.0). Reactions were initiated by the addition of 5 μCi [α^32p] ATP, 15 mM MgCl2, 150 mM ATP, 1.5 mM Tris-HCl, pH 7.4, and 15 mM NaCl. […] Phosphorylated lipids were analyzed by thin layer chromatography using gel plates pre-coated with 1% oxalate (Merck, White House Station, N.J.). PI3K activity was measured with a phosphorimager.
PI3 kinase is an important mediator of neuronal survival. […] Since insulin and IGF-1 can activate PI3 kinase through the insulin-receptor substrate-1 (IRS-1) or through IRS-1-independent pathways, both IRS1-associated PI3 kinase and total PI3 kinase activities were measured. […] Levels of PI3 kinase activity were measured in anti-phospho-tyrosine (PY) immunoprecipitates. […] Similarly, PI3 kinase activity was readily detected in the PY immunoprecipitates prepared with cells stimulated with insulin or PDGF.

The test system of data set [2] is PY-PI3 kinase (total PI3 kinase). Nature of the data set: PI3 kinase activity in anti-phospho-tyrosine (PY) immunoprecipitates. Conditions: 24 or 48 hours of stimulation. Here is the method:
The cells were harvested in Triton lysis buffer supplemented with protease and phosphatase inhibitors. Total PI3K was immunoprecipitated from 500 μg protein in cell lysates using rabbit polyclonal antibodies to the p85 subunit of PI3K and Protein A sepharose. The immunoprecipitants were incubated for 5 minutes at room temperature with 10 μg of sonicated phosphatidylinositol in HEPES buffer (200 mM HEPES, 4 mM EGTA, 4 mM sodium phosphate, pH 7.0). Reactions were initiated by the addition of 5 μCi [α^32p] ATP, 15 mM MgCl2, 150 mM ATP, 1.5 mM Tris-HCl, pH 7.4, and 15 mM NaCl. After 10 minutes incubation at 30° C., the reactions were stopped by the addition of HCl to a final concentration of 1.2 N, followed by chloroform/methanol extraction. Phosphorylated lipids were analyzed by thin layer chromatography using gel plates pre-coated with 1% oxalate (Merck, White House Station, N.J.). PI3K activity was measured with a phosphorimager.
PI3 kinase is an important mediator of neuronal survival. The pro-survival effects of PI3K are mediated through activation of Akt (protein kinase B) and phosphorylation of Bad to render it inactivated. Inhibition of PI3 kinase activity is associated with PNET2 cell apoptosis. Therefore, experiments were carried out to determine if growth factor stimulated PI3 kinase activity was inhibited in insulin or IGF-1-stimulated cultures. Such inhibition has been observed following chronic ethanol exposure. Since insulin and IGF-1 can activate PI3 kinase through the insulin-receptor substrate-1 (IRS-1) or through IRS-1-independent pathways, both IRS1-associated PI3 kinase and total PI3 kinase activities were measured. These studies were conducted using insulin or PDGF stimulated cultures in which AD7c-NTP gene expression was induced by 3 mM IPTG stimulation. […] Levels of PI3 kinase activity were measured in anti-phospho-tyrosine (PY) immunoprecipitates. […] Similarly, PI3 kinase activity was readily detected in the PY immunoprecipitates prepared with cells stimulated with insulin or PDGF.

Take “insulin: Human insulin purchased from Novagen”: in the data set with p53, the p53 level result is on record as “high levels of p53; also recorded: significantly increased levels”. Also, the “phospho-Erk MAPK level, short-term stimulation” value in the data set on phospho-Erk MAPK (0-30 minutes stimulation) is recorded as “increased levels”. Moreover, the “phospho-Erk MAPK level, 24 hours” value with phospho-Erk MAPK (24 hours of AD7c-NTP induction and growth factor stimulation) is “reduced levels”. Also, the “IRS-1-associated PI3 kinase activity” value in data set [1] is reported as “sharply increased”. In data set [2], the “PY-PI3 kinase activity, 24 or 48 hours” value was “similar”.
